Reference: patent US9334300B2, “Vitamin B6 derivatives of nucleotides, acyclonucleotides and acyclonucleoside phosphonates” (MBC PHARMA, INC., priority 2011, dated 2016)
Blank lines part the entries; values can stand above or below the molecule they belong to.

Legend:
22Rv1 cells [1] = experiment: MTS proliferation assay, 22Rv1 prostate cancer cells; assay type: cell-based
Experimental: (§1) In a 96-well plate, each well was prepared to contain 50 uL of 50,000 cells in media (HyClone IMDM Modified+4 mM L-Glu, HEPES with 10% Fetal Bovine Serum) to which was added 50 uL media containing either the free nucleoside (cytarabine or gemcitabine) or the conjugate (compound 3 or 16) that achieved the following final concentrations: 0, 0.1, 0.2, 0.5, 1, 3, 10, or 100 uM. The cells were incubated at 37° C. with 5% CO2 for 24, 48 or 72 hours (data trends similarly for all incubation periods while the 48 hour data is shown). The Promega MTS based proliferation assay kit (Promega; CellTiter 96® AQueous Non-Radioactive Cell Proliferation Assay (MTS)) was used as per manufacturer's instructions. In short, to each well 100 uL of MTS/PMS reagent was added and allowed to incubate for approximately 2 hours at 37° C. to achieve a colorimetric indication of active cell metabolism. This was quantitated by reading the visible absorption at 415 nm. The data (FIG. 1) was normalized to the absorption range defined from minimal absorbance (media absent cells and drug present), to maximum absorbance (media with cells in the absence of drug). All points were measured in triplicate and averaged before normalization to a 0-100% range. Data was plotted (FIG. 1) as percent inhibition versus log of the compound concentration. Where sigmodial curve fitting was possible, a four-parameter logistic non-linear regression model equation was used to generate the curves and IC50 values. […] The pulse chase experiments shown in FIG. 2 were done as described above with the one alteration that at either the 10 or 60 time point after addition of drug the media was replaced with drug-free media and the cells were allowed to continue incubation for a total of 48 hours. […] Data points were collected in quintuplicate; error bars show standard deviations. […] Sigmodial curve fitting employed a four-parameter logistic non-linear regression model equation.

Capan2 cells = experiment: Pulse chase (60 minute exposure) MTS proliferation assay, Capan2; assay type: cell-based, human; conditions: 60 minute pulse, all concentrations tested
22Rv1 cells [2] = experiment: Pulse chase (10 or 60 minute exposure) MTS proliferation assay, 22Rv1; assay type: cell-based; conditions: 48 hours in fresh media
Experimental: as §1
This was tested for with a 10 or 60 minute pulsed exposure of 22Rv1 cells to compounds, followed by 48 hours of incubation in fresh media. […]

[3] = Conjugate stability in saline and growth media (HPLC); assay type: physicochemical; conditions: for stability in buffers and media: over the time course of experiments
Experimental: The rapid release of nucleoside or nucleotide from the conjugate into the growth media appeared to be ruled out. To test for this event conjugate 3 was incubated in isotonic saline, sterile media or media that was conditioned by 3 days of cell growth. In conditioned media the cells were removed from the media by centrifugation and conjugate was added to the media and incubated at 37° C. for 0.25, 24 and 72 hours. Proteins and large molecules were removed via precipitation with a 5:4:1 v:v:v mixture of Acetonitrile:methanol:1% Formic acid and subsequent centrifugation. The supernatant (100 uL injection volume) was subjected to HPLC analysis on DNA Pac PA 200 (Dionex, USA) column in a gradient of 400 mM ammonium acetate in 20% acetonitrile (3-40% over 10 minutes).

[4] = tested on: pancreatic cell lines (Capan2, Panc1 and MiaPaca); experiment: MTS proliferation assay, pancreatic cancer cell lines; assay type: cell-based; conditions: 48 hours, FIG. 1
Experimental: (§2) In a 96-well plate, each well was prepared to contain 50 uL of 50,000 cells in media (HyClone IMDM Modified+4 mM L-Glu, HEPES with 10% Fetal Bovine Serum) to which was added 50 uL media containing either the free nucleoside (cytarabine or gemcitabine) or the conjugate (compound 3 or 16) that achieved the following final concentrations: 0, 0.1, 0.2, 0.5, 1, 3, 10, or 100 uM. The cells were incubated at 37° C. with 5% CO2 for 24, 48 or 72 hours (data trends similarly for all incubation periods while the 48 hour data is shown). The Promega MTS based proliferation assay kit (Promega; CellTiter 96® AQueous Non-Radioactive Cell Proliferation Assay (MTS)) was used as per manufacturer's instructions. In short, to each well 100 uL of MTS/PMS reagent was added and allowed to incubate for approximately 2 hours at 37° C. to achieve a colorimetric indication of active cell metabolism. This was quantitated by reading the visible absorption at 415 nm. The data (FIG. 1) was normalized to the absorption range defined from minimal absorbance (media absent cells and drug present), to maximum absorbance (media with cells in the absence of drug). All points were measured in triplicate and averaged before normalization to a 0-100% range. Data was plotted (FIG. 1) as percent inhibition versus log of the compound concentration. […]

[5] = tested on: subcutaneous Capan-2 tumors; experiment: Mouse xenograft model of pancreatic cancer; assay type: in vivo; conditions: nude mice, Capan-2 subcutaneous, 20 mg/kg 3-times per week
Experimental: FIG. 4 illustrates the conjugate of vitamin B6 and gemcitabine is efficacious in a mouse model of human pancreatic cancer. In this model, immune compromised nude mice were injected subcutaneously with the human pancreatic cell line Capan-2 (˜10^6 cells/100 ul). After tumor growth was detected the animals were randomized and either administered the isotonic saline vehicle control alone or with the gemcitabine conjugate (20 mg/kg; 3-times per week).

PC3 prostate cancer line = experiment: MTS proliferation assay, PC3 prostate cancer cells; assay type: cell-based; conditions: 48 hours, FIG. 1
Experimental: as §2

5TGM1 cells = experiment: MTS proliferation assay, multiple myeloma cell line; assay type: cell-based, rodent; conditions: 72 hours, FIG. 3
Experimental: In a 96-well plate, each well was prepared to contain 50 uL of 50,000 5TGM1 cells in media (HyClone IMDM Modified+4 mM L-Glu, HEPES with 10% Fetal Bovine Serum) to which was added 50 uL media containing cytarabine or compound 3 (MU004-26) that achieved the following final concentrations: 0, 0.1, 0.2, 0.5, 1, 3, 10, or 100 uM. The cells were incubated at 37° C. with 5% CO2 for 24, 48 or 72 hours (data trends similarly for all incubation periods while the 72 hour data is shown). The Promega […] based proliferation assay kit was used as per manufacturer's instructions. In short, to each well 100 uL of MTS/PMS reagent was added and allowed to incubate for approximately 2 hours at 37° C. to achieve a colorimetric indication of active cell metabolism. This was quantitated by reading the visible absorption at 415 nm. The data (FIG. 3) was normalized to the absorption range defined from minimal absorbance—media absent cells and drug present, to maximum absorbance—media with cells in the absence of drug. All points were measured in triplicate and averaged before normalization to a 0-100% range. Data was plotted (FIG. 3) as percent inhibition versus log of the compound concentration. As the FIG. 3 illustrates the Cytarabine IC50=0.5 uM while the Conjugate IC50=1 uM.

stability in buffers and media [3]: stable
SMILES: Cc1ncc(CO)c(CNP(=O)(O)OC[C@H]2O[C@@H](n3ccc(N)nc3=O)C(F)(F)C2O)c1O (stereo partly drawn) [Compound 16, N-pyridoxylamide of 2′-Deoxy-2′,2′-difluoro-5′-cytidylic acid]
fold more potent than Gem (22Rv1 cells [1]; 48 hours, FIG. 1): up to 7 fold
effect of pulse compared to free Gem (Capan2 cells): more rapid effect
decrease of proliferation beyond that of free gemcitabine (22Rv1 cells [2]; 100 uM pulse for 60 minutes): 40%
anti-proliferation after pulse (22Rv1 cells [2]; 10 minute pulse): measurable anti-proliferation
fold more potent than Gem alone [4]: 2-100 fold
tumor growth relative to untreated growth [5]: stabilized tumor growth

SMILES: Nc1ccn([C@@H]2O[C@H](CO)[C@@H](O)C2(F)F)c(=O)n1 [Gemcitabine, 2′-Deoxy-2′,2′-difluorocytidine, reference compound]
effect on proliferation (22Rv1 cells [1]; 48 hour exposure, 0.1-10 uM): stimulated proliferation
stimulation of proliferation (22Rv1 cells [2]; 100 uM pulse): 10%
sensitivity to parent drug relative to conjugate (PC3 prostate cancer line): 3 fold

IC50 (5TGM1 cells): 0.5 µM
SMILES: Nc1ccn([C@@H]2O[C@H](CO)[C@@H](O)[C@@H]2O)c(=O)n1 [Cytarabine, reference compound]

IC50 (5TGM1 cells): 1 µM
stability in buffers and media [3]: stable
SMILES: Cc1ncc(CO)c(CN[P@SP3](=O)(O)OC[C@H]2O[C@@H](n3ccc(N)nc3=O)C(O)C2O)c1O (stereo partly drawn) [Compound 3, 5′-aracytidilic acid N-pyridoxylamide]
fold more potent than araC (22Rv1 cells [1]; 48 hours, FIG. 1): > 10 fold
release of free cytarabine or pyridoxamine (HPLC) ([3]; isotonic saline, sterile media or conditioned media, 37° C., 0.25, 24 and 72 hours): neither free cytarabine nor free pyridoxamine (or any other pyridoxyl based compound) was detected
